Experimental data reported in patent US4663329A, “Thienopyridinone derivatives and anti-bacterial compositions containing them” (Sanofi, priority 1984, dated 1987).
≈ marks a conversion by molar mass, not a printed value. Read-outs that look alike come from different tables or passages of the source.

Columns and labels:
Type in all cases: cell-based
[1] = system: Acinetobacter calcoaceticus C 1733; test: In vitro antibacterial activity, MIC, Acinetobacter calcoaceticus C 1733; conditions: C1733, 37° C., pH=7.4, inoculum 10^4, read-out: MIC
Experimental: (§1) Tests carried out in vitro in accordance with the experimental procedure described hereunder have provided evidence of the antibacterial activity in question.
(§2) For this purpose, the M.I.C. were determined i.e. the minimal inhibiting concentrations of the compound under study acting on the growth of the bacteria at 37° C.
(§3) The serial dilutions method was used utilizing a MUELLER HINTON gelose medium at pH=7.4 and a bacterial inoculum of 10^4 units forming colonies. This inoculum was applied to the gelose by means of a multiple sowing device.
(§4) A scale of concentrations ranging from 100 to 0.05 μg/ml of compound to be studied was used starting from mother solutions titrating 1000 μg/ml, all the subsequent dilutions being effected in distilled water.

[2] = system: Klebsiella pneumoniae R 30; test: In vitro antibacterial activity, MIC, Klebsiella pneumoniae R 30; conditions: R30
Experimental: as §1, §2, §3, §4

[3] = system: Proteus vulgaris RL 99 bis; test: In vitro antibacterial activity, MIC, Proteus vulgaris RL 99 bis; conditions: RL99BIS
Experimental: as §1, §2, §3, §4

[4] = system: Klebsiella pneumoniae ATCC 10031; test: In vitro antibacterial activity, MIC, Klebsiella pneumoniae ATCC 10031; conditions: ATCC10031
Experimental: as §1, §2, §3, §4

[5] = system: Proteus morganii 1510; test: In vitro antibacterial activity, MIC, Proteus morganii 1510; conditions: Morganella morganii
Experimental: as §1, §2, §3, §4

[6] = system: Streptococcus faecalis 5855 IP; test: In vitro antibacterial activity, MIC, Streptococcus faecalis 5855 IP; conditions: Enterococcus faecalis, 37° C., pH=7.4, inoculum 10^4, read-out: MIC
Experimental: as §1, §2, §3, §4

[7] = system: Bordetella bronchiseptica ATCC 4617; test: In vitro antibacterial activity, MIC, Bordetella bronchiseptica ATCC 4617; conditions: ATCC4617, 37° C., pH=7.4, inoculum 10^4, read-out: MIC
Experimental: as §1, §2, §3, §4

[8] = system: Salmonella typhi ATCC 6539; test: In vitro antibacterial activity, MIC, Salmonella typhi ATCC 6539; conditions: Salmonella enterica
Experimental: as §1, §2, §3, §4

[9] = system: Pseudomonas aeruginosa 8203; test: In vitro antibacterial activity, MIC, Pseudomonas aeruginosa 8203; conditions: 37° C., pH=7.4, inoculum 10^4, read-out: MIC
Experimental: as §1, §2, §3, §4

[10] = system: Serratia liquefaciens 376; test: In vitro antibacterial activity, MIC, Serratia liquefaciens 376; conditions: 37° C., pH=7.4, inoculum 10^4, read-out: MIC
Experimental: as §1, §2, §3, §4

[11] = system: Shigella sonnei R 018; test: In vitro antibacterial activity, MIC, Shigella sonnei R 018; conditions: R018, 37° C., pH=7.4, inoculum 10^4
Experimental: as §1, §2, §3, §4

[12] = system: Escherichia coli 54127 IP; test: In vitro antibacterial activity, MIC, Escherichia coli 54127 IP
Experimental: as §1, §2, §3, §4

[13] = system: Bacillus subtilis ATCC 6633; test: In vitro antibacterial activity, MIC, Bacillus subtilis ATCC 6633; conditions: ATCC6633
Experimental: as §1, §2, §3, §4

[14] = system: Escherichia coli SOL RL 90; test: In vitro antibacterial activity, MIC, Escherichia coli SOL RL 90; conditions: SOLRL90
Experimental: as §1, §2, §3, §4

[15] = system: Staphylococcus aureus 53154 IP; test: In vitro antibacterial activity, MIC, Staphylococcus aureus 53154 IP; conditions: Staphylococcus aureus 53154 IP; 37° C., pH=7.4, inoculum 10^4; read-out: MIC
Experimental: as §1, §2, §3, §4

[16] = system: Enterobacter cloacae P 99; test: In vitro antibacterial activity, MIC, Enterobacter cloacae P 99; conditions: Enterobacter cloacae, P99
Experimental: as §1, §2, §3, §4

[17] = system: Proteus mirabilis ATCC 21100; test: In vitro antibacterial activity, MIC, Proteus mirabilis ATCC 21100; conditions: ATCC21100
Experimental: as §1, §2, §3, §4

[18] = system: Salmonella typhimurium A 222 IP; test: In vitro antibacterial activity, MIC, Salmonella typhimurium A 222 IP; conditions: Salmonella enterica
Experimental: as §1, §2, §3, §4

[19] = system: Citrobacter freundii GN 346; test: In vitro antibacterial activity, MIC, Citrobacter freundii GN 346; conditions: GN346
Experimental: as §1, §2, §3, §4

[20] = system: Enterobacter hafniae RO 46; test: In vitro antibacterial activity, MIC, Enterobacter hafniae RO 46; conditions: Hafnia alvei, RO46
Experimental: as §1, §2, §3, §4

[21] = system: Providencia stuartii 5158; test: In vitro antibacterial activity, MIC, Providencia stuartii 5158
Experimental: as §1, §2, §3, §4

[22] = Klebsiella pneumoniae R 30, 37° C., pH=7.4, inoculum 10^4, read-out: MIC
[23] = Klebsiella pneumoniae ATCC 10031, 37° C., pH=7.4, inoculum 10^4, read-out: MIC
[24] = Escherichia coli 54127 IP, 37° C., pH=7.4, inoculum 10^4, read-out: MIC
[25] = Enterobacter hafniae RO 46, 37° C., pH=7.4, inoculum 10^4, read-out: MIC
[26] = Providencia stuartii 5158, 37° C., pH=7.4, inoculum 10^4, read-out: MIC
[27] = Proteus vulgaris RL 99 bis, 37° C., pH=7.4, inoculum 10^4, read-out: MIC
[28] = Proteus morganii 1510, 37° C., pH=7.4, inoculum 10^4, read-out: MIC
[29] = Proteus mirabilis ATCC 21100, 37° C., pH=7.4, inoculum 10^4, read-out: MIC

Row | SMILES | MIC [1] [µg/mL] | MIC [2, 22] [µg/mL] | MIC [4, 23] [µg/mL] | MIC [6] [µg/mL] | MIC [7] [µg/mL] | MIC [8] [µg/mL] | MIC [9] [µg/mL] | MIC [10] [µg/mL] | MIC [11] [µg/mL] | MIC [12, 24] [µg/mL] | MIC ([13]; Bacillus subtilis) [µg/mL] | MIC ([14]; Escherichia coli) [µg/mL] | MIC [15] [µg/mL] | MIC [16] [µg/mL] | MIC ([18]; TYPHIMURIUM) [µg/mL] | MIC ([19]; Citrobacter freundii) [µg/mL] | MIC [20, 25] [µg/mL] | MIC [21, 26] [µg/mL] | MIC [3, 27] [µg/mL] | MIC [5, 28] [µg/mL] | also measured
1 | CCn1cc(C(=O)O)c(=O)c2cc(C=Nc3ccccc3O)sc21 [Compound F, 4,7-Dihydro-7-ethyl-2-N-(2-hydroxy-phenyl)-iminomethyl-4-oxo-thieno[2,3-b]pyridine-5-carboxylic acid] | 100 (≈ 292 µM) | 12.5 (≈ 36.5 µM) | 12.5 (≈ 36.5 µM) | > 100 | > 100 | 3.12 (≈ 9.11 µM) | > 100 | > 100 | 6.25 (≈ 18.3 µM) | 1.56 (≈ 4.56 µM) | 6.25 (≈ 18.3 µM) | 3.12 (≈ 9.11 µM) | 100 (≈ 292 µM) | 6.25 (≈ 18.3 µM) | 3.12 (≈ 9.11 µM) | 6.25 (≈ 18.3 µM) | 1.56 (≈ 4.56 µM) | 12.5 (≈ 36.5 µM) | – | – | MIC ([3]; Proteus vulgaris): 3.12 µg/mL (≈ 9.11 µM); MIC [5]; 1510: 6.25 µg/mL (≈ 18.3 µM); MIC ([17]; Proteus mirabilis): 3.12 µg/mL (≈ 9.11 µM)
2 | CCn1cc(C(=O)O)c(=O)c2cc(/C=N/O)sc21 [Compound B, 4,7-Dihydro-7-ethyl-2-hydroxyiminomethyl-4-oxo-thieno[2,3-b]pyridine-5-carboxylic acid, anti-isomer] | > 100 | – | – | > 100 | > 100 | 6.25 (≈ 23.5 µM) | 100 (≈ 376 µM) | 50 (≈ 188 µM) | 0.8 (≈ 3 µM) | – | 6.25 (≈ 23.5 µM) | 3.12 (≈ 11.7 µM) | 12.5 (≈ 46.9 µM) | 6.25 (≈ 23.5 µM) | 3.12 (≈ 11.7 µM) | 3.12 (≈ 11.7 µM) | – | – | 0.8 (≈ 3 µM) | 0.4 (≈ 1.5 µM) | MIC ([2]; Klebsiella pneumoniae): 6.25 µg/mL (≈ 23.5 µM); MIC ([4]; Klebsiella pneumoniae): 1.56 µg/mL (≈ 5.86 µM); MIC ([12]; Escherichia coli, 54127IP): 3.12 µg/mL (≈ 11.7 µM); MIC ([17]; Proteus mirabilis): 1.56 µg/mL (≈ 5.86 µM); MIC [20]: 3.12 µg/mL (≈ 11.7 µM); MIC ([21]; Providencia stuartii, 5158): 6.25 µg/mL (≈ 23.5 µM)
3 | CCn1cc(C(=O)O)c(=O)c2cc(/C=N\O)sc21 [Compound C, 4,7-Dihydro-7-ethyl-2-hydroxyiminomethyl-4-oxo-thieno[2,3-b]pyridine-5-carboxylic acid, syn-isomer] | > 100 | – | 12.5 (≈ 46.9 µM) | > 100 | > 100 | 3.12 (≈ 11.7 µM) | > 100 | 50 (≈ 188 µM) | 0.8 (≈ 3 µM) | 12.5 (≈ 46.9 µM) | 6.25 (≈ 23.5 µM) | 3.12 (≈ 11.7 µM) | 12.5 (≈ 46.9 µM) | 3.12 (≈ 11.7 µM) | 3.12 (≈ 11.7 µM) | 3.12 (≈ 11.7 µM) | 12.5 (≈ 46.9 µM) | 12.5 (≈ 46.9 µM) | 12.5 (≈ 46.9 µM) | 0.4 (≈ 1.5 µM) | MIC ([2]; Klebsiella pneumoniae): 6.25 µg/mL (≈ 23.5 µM); MIC [17, 29]: 12.5 µg/mL (≈ 46.9 µM)
4 | CCn1cc(C(=O)O)c(=O)c2cc(C=NOC(C)(C)C)sc21 [Compound I, 4,7-Dihydro-7-ethyl-4-oxo-2-tert-butoxyiminomethyl-thieno[2,3-b]pyridine-5-carboxylic acid] | > 25 | > 25 | 3.12 (≈ 9.68 µM) | > 100 | > 25 | > 25 | > 25 | > 25 | > 50 | > 25 | – | – | > 50 | > 25 | – | – | > 25 | > 50 | > 50 | > 25 | MIC ([13]; Bacillus subtilis ATCC 6633, 37° C., pH=7.4, inoculum 10^4, read-out: MIC): 1.56 µg/mL (≈ 4.84 µM); MIC ([14]; Escherichia coli SOL RL 90, 37° C., pH=7.4, inoculum 10^4, read-out: MIC): > 50 µg/mL; MIC [17, 29]: > 25 µg/mL; MIC ([18]; Salmonella typhimurium A 222 IP, 37° C., pH=7.4, inoculum 10^4, read-out: MIC): > 50 µg/mL; MIC ([19]; Citrobacter freundii GN 346, 37° C., pH=7.4, inoculum 10^4, read-out: MIC): > 25 µg/mL
